Experimental data from patent publication EP0194158A2, “Anti-nicotine and anti-cotinine antibodies (monoclonal and other), and their uses in nicotine and cotinine assays” (Baylor College of Medicine, priority 1985, dated 1986).
Like-named read-outs stand apart in the source and are kept apart here.

Key:
[1] = molecular target: monoclonal antibody Anti-cotinine 305E5; assay: sandwich ELISA, inhibition of binding of monoclonal antibody to solid phase hapten (specificity); design: species or system mouse
From the text: (§1) Control values were less than 0.05 absorbance unit.

[2] = test system: monoclonal antibody Anti-nicotine 402C10; assay: as above; design: species or system mouse
From the text: as §1

[3] = test system: Rabbit Antibody 113D (anti-cotinine); assay: Fluorescent (fluorometric) ELISA; type: binding; settings: nanograms of cotinine inhibitor required for 50% inhibition
Procedure: (§2) b. Fluorometric ELISA: The wells of polystyrene microtiter plates (Immulon 2; Dynatech Laboratories, Alexandria, VA) were coated respectively with 0.004 and 0.016 ug of polylysine-cotinine and polylysine-nicotine conjugate (0.1 ml) in 3 mM phosphate buffer, and incubated overnight at 4°C, pH 6.3. After aspiration, the wells were blocked with 0.2 ml casein buffer (0.01M Tris-buffered saline, pH 7.6., containing 0.01M EDTA and 0.2% vitamin-free casein (Nutritional Biochemicals, Cleveland, OH)) for 1 hour at room temperature, and then washed once with 0.2 ml of the same buffer and again aspirated. Assays were performed in 0.1 ml total volume per well using 0.050 ml diluted ascites (0.025 ml sample), and 0.025 ml nicotine or cotinine. Plates were incubated overnight at 4°C, washed three times with 0.2 ml casein buffer and then 0.1 ml biotin conjugated sheep anti-mouse IgG (Cooper Biomedical, Malvern, PA) diluted 1/250 with casein buffer was added. After incubation for 3 hours at room temperature, the plates were washed three times with 0.2 ml casein buffer, and streptavidin (0.5 ug) was added to each well, incubated for 1 hour at room temperature and washed as before. 0.1 ml of biotinylated alkaline phosphatase (Zymed, South San Francisco, CA) diluted 1/200 was added to each well, the plates were incubated for 1 hour at room temperature, washed with 0.2 ml PBS containing 0.05% Tween-20, and then washed three times with 0.2 ml of 0.01 M Tris-buffered saline, pH 7.6. 0.1 ml of substrate was added containing 2.5 mM 4-methylumbelliferyl phosphate dissolved in buffer containing diethanolamine (20% v/v) pH 10, 1 mM MgClz, and 9 mM levamisol. Fluorescence was measured with a Microfluor fluorometer (Dynatech Laboratories) at an excitation wavelength of 365 nm and emission wavelength of 450 nm. The plates were read right after substrate was added and again at 30 minute intervals. (Plates should be stored in the dark).

[4] = test system: Rabbit Antibody 495D (anti-cotinine); assay: Fluorescent (fluorometric) ELISA; type: binding; settings: nanograms of cotinine inhibitor required for 50% inhibition
Procedure: as §2

[5] = test system: Rabbit Antibody 494D (anti-cotinine); assay: Fluorescent (fluorometric) ELISA; type: binding; settings: nanograms of cotinine inhibitor required for 50% inhibition
Procedure: as §2

[6] = molecular target: monoclonal antibody Anti-cotinine 308C11, isotype IgG1k; assay: binding affinity constant K (method of R. Muller); design: species or system mouse; settings: value is K multiplied by 10^-8
[7] = test system: Rabbit Antibody 482D (anti-cotinine); assay: Fluorescent (fluorometric) ELISA; type: binding; settings: nanograms of cotinine inhibitor required for 50% inhibition
[8] = molecular target: monoclonal antibody Anti-cotinine 206F8, isotype IgAlambda; assay: binding affinity constant K (method of R. Muller); design: species or system mouse; settings: value is K multiplied by 10^-8
[9] = molecular target: monoclonal antibody Anti-cotinine 305E5, isotype IgG2bk; assay: binding affinity constant K (method of R. Muller); design: species or system mouse; settings: value is K multiplied by 10^-8
[10] = test system: the 4 anticotinine antibodies (McAb); assay: sandwich ELISA, inhibition by homologous hapten, all anti-cotinine McAb; type: binding, mouse; settings: range over the 4 antibodies; each McAb diluted to give A490 1.0-1.2 without inhibitor
Procedure: as §1
Only 0.02 ng cotinine inhibited by 15%.

[11] = test system: Monoclonal Antibody 309G5 (anti-cotinine); assay: Fluorescent (fluorometric) ELISA; type: binding, mouse; settings: nanograms of cotinine inhibitor required for 50% inhibition
Procedure: as §2

[12] = test system: Monoclonal Antibody 308C11 (anti-cotinine); assay: Fluorescent (fluorometric) ELISA; type: binding, mouse; settings: nanograms of cotinine inhibitor required for 50% inhibition
Procedure: as §2

[13] = test system: Monoclonal Antibody 305E5 (anti-cotinine); assay: Fluorescent (fluorometric) ELISA; type: binding, mouse; settings: nanograms of cotinine inhibitor required for 50% inhibition
Procedure: as §2

[14] = test system: Monoclonal Antibody 206F8 (anti-cotinine); assay: Fluorescent (fluorometric) ELISA; type: binding, mouse; settings: nanograms of cotinine inhibitor required for 50% inhibition
Procedure: as §2

[15] = test system: Rabbit Antibody 481D (anti-cotinine); assay: Fluorescent (fluorometric) ELISA; type: binding; settings: nanograms of cotinine inhibitor required for 50% inhibition
[16] = molecular target: monoclonal antibody Anti-cotinine 309G5, isotype IgG1k; assay: binding affinity constant K (method of R. Muller); design: species or system mouse; settings: value is K multiplied by 10^-8
[17] = test system: the 6 cotinine antisera (rabbit); assay: ELISA with rabbit antisera, no second antibody; type: binding; settings: range over the 6 antisera
From the text: In these assays, no second antibody is required, because all rabbit IgG binds HRP-SpA (J.W. Goding, 20 J. Immunol. Methods 241 (1978)).

[18] = test system: the 9 antinicotine antibodies (McAb)
Procedure: The specificity of two of the antibodies (anti-nicotine 402Cl0 and anti-cotinine 305E5) was analyzed,. using a modification of the sandwich ELISA technique, which technique is described in detail below. In essence, specificity was determined by discerning how much structually related substance need be added to inhibit binding of monoclonal antibody to solid phase hapten by 50%. The assays were carried out in wells coated with 0.012 ug nicotine- or cotinine-polylysine conjugate, and with anti-nicotine and anti-cotinine diluted 1:729,000.
The modification involved use of 0.01 m1 of serially diluted standard nicotine or cotinine, (known amounts of inhibitors to assess antibody specificity), or test samples (eg. saliva) added to 0.04 ml casein buffer before its incubation with monoclonal antibodies. Maximum A490 values (i.e., maximum antibody binding) were determined using casein buffer (0.01 ml) in place of inhibitor. […] Control values were less than 0.05 absorbance unit. […]
After the preparation, to determine McAb binding, 0.05 ml diluted ascites fluid was added to 0.05 ml casein buffer and the plates were incubated overnight at 4°C. […] Color development was stopped by addition of 0.05 ml 4N sulfuric acid, and the A490 nm values were measured in the ELISA reader.

[19] = molecular target: monoclonal antibody Anti-nicotine 304A7, isotype IgG1lambda; settings: read-out: K; binding affinity constant; value is K multiplied by 10^-8
Procedure: (§3) The binding affinity constant (K; an indication of binding strength), was measured by the method described in R. Muller, 34 J. Immunol. Methods 345 (i980). The concentration of antibody in the ascites fluid was also measured by a method described in R. Muller, id.

[20] = molecular target: monoclonal antibody Anti-nicotine 302G3, isotype IgG1lambda; settings: read-out: K; binding affinity constant; value is K multiplied by 10^-8
Procedure: as §3

[21] = molecular target: monoclonal antibody Anti-nicotine 203G3, isotype IgMlambda; settings: read-out: K; binding affinity constant; value is K multiplied by 10^-8
Procedure: as §3

[22] = molecular target: monoclonal antibody Anti-nicotine 301C4, isotype IgG1lambda; settings: read-out: K; binding affinity constant; value is K multiplied by 10^-8
Procedure: as §3

[23] = molecular target: monoclonal antibody Anti-nicotine 402C10, isotype IgG2ak; settings: read-out: K; binding affinity constant; value is K multiplied by 10^-8
Procedure: as §3

[24] = molecular target: monoclonal antibody Anti-nicotine 304A4, isotype IgG1k; settings: read-out: K; binding affinity constant; value is K multiplied by 10^-8
Procedure: as §3

[25] = molecular target: monoclonal antibody Anti-nicotine 303C10, isotype IgG2k; settings: read-out: K; binding affinity constant; value is K multiplied by 10^-8
Procedure: as §3

[26] = molecular target: monoclonal antibody Anti-nicotine 303C5, isotype IgG1lambda; settings: read-out: K; binding affinity constant; value is K multiplied by 10^-8
Procedure: as §3

[27] = molecular target: monoclonal antibody Anti-nicotine 302A12, isotype IgG1k; settings: read-out: K; binding affinity constant; value is K multiplied by 10^-8
Procedure: as §3

[28] = test system: single rabbit antinicotine serum
From the text: Also developed were similar ELISAs using rabbit antisera, that being prepared as described in J.J. Langone et al., Biochemistry (1973) supra; J.J. Langone, H. Van Vunakis, Methods in Enzymology (1982) supra. In these assays, no second antibody is required, because all rabbit IgG binds HRP-SpA (J.W. Goding, 20 J. Immunol. Methods 241 (1978)).

[29] = wells coated with 0.012 ug cotinine-polylysine conjugate, anti-cotinine diluted 1:729,000, total volume 0.1 ml
[30] = wells coated with 0.012 ug nicotine-polylysine conjugate, anti-nicotine diluted 1:729,000, total volume 0.1 ml
[31] = at 700 ng, the highest amount printed in the cell

## (-)-cotinine N'-oxide
[1]; [29]
  Nanograms required for 50% inhibition: 4.6 Nanograms
[2]; at the 1,000 ng level
  inhibition (per cent in brackets): 0%
[2]; [30]
  Nanograms required for 50% inhibition: > 1,000 Nanograms

## CN1CCCC1CCO (stereo not drawn) [1-methyl-2-pyrrolidine ethanol]
[1]; [29]
  Nanograms required for 50% inhibition: 6,950 Nanograms
[2]; [30]
  Nanograms required for 50% inhibition: 5.4 Nanograms

## CN1CCCC1c1ccc(N)nc1 (stereo not drawn) [6-aminonicotine]
[1]; [29]
  Nanograms required for 50% inhibition: 8,500 Nanograms
[2]; [30]
  Nanograms required for 50% inhibition: 35.0 Nanograms

## CN1C(=O)CC[C@H]1c1cccnc1 [(S)-(-)-cotinine]
[3]
  I 50%: 0.045 nanograms
[4]
  I 50%: 0.310 nanograms
[5]
  I 50%: 0.075 nanograms
[6]
  Kd: 3.21 nM
[7]
  I 50%: 0.025 nanograms
[8]
  Kd: 5.41 nM
[1]; 0.02 ng cotinine
  inhibition: 15%
[1]; [29]
  Nanograms required for 50% inhibition: 0.12 Nanograms
[2]; [30]
  Nanograms required for 50% inhibition: 1,000 Nanograms
[9]
  Kd: 1.76 nM
[10]
  50% inhibition: 0.038 to 0.12 ng
[11]
  I 50%: 0.015 nanograms
[12]
  I 50%: 0.033 nanograms
[13]
  I 50%: 0.024 nanograms
[14]
  I 50%: 0.255 nanograms
[15]
  I 50%: 0.215 nanograms
[16]
  Kd: 1.32 nM
[17]
  50% inhibition values: 0.3 to 1.2 ng

## c1cncc([C@@H]2CCCCN2)c1 [anabasine]
[1]; [29]
  Nanograms required for 50% inhibition: 170 Nanograms
[2]; [30]
  Nanograms required for 50% inhibition: 14.3 Nanograms

## O=C1CCC(c2cccnc2)N1 (stereo not drawn) [desmethylcotinine]
[1]; ratio to (S)-(-)-cotinine
  fold more required for 50% inhibition compared to homologous hapten: 13 fold
[1]; [29]
  Nanograms required for 50% inhibition: 1.6 Nanograms
[2]; [30]
  Nanograms required for 50% inhibition: 10,000 Nanograms

## C[N+]1([O-])CCCC1c1cccnc1 (stereo not drawn) [nicotine N'-oxide]
[1]; [29]
  Nanograms required for 50% inhibition: 490 Nanograms
[2]; [30]
  Nanograms required for 50% inhibition: 81.0 Nanograms

## CN1CCCC1c1ccc(O)nc1 (stereo not drawn) [6-hydroxynicotine]
[1]; [29]
  Nanograms required for 50% inhibition: 330 Nanograms
[2]; ratio to the naturally occurring isomer
  times more required for 50% inhibition than (S)-(-)-nicotine: 5 fold
[2]; [30]
  Nanograms required for 50% inhibition: 1.3 Nanograms

## CN1CCC[C@H]1c1cccnc1 [(S)-(-)-nicotine]
[18]; range over all 9 anti-nicotine McAb, versus R-(+)-nicotine
  Stereospecificity for (S)-(-)-nicotine: 5-45 fold
[18]; range over the 9 antibodies, each McAb diluted to give A490 1.0-1.2 without inhibitor
  50% inhibition: 0.091 to 0.51 ng
[19]
  Kd: 11.4 nM
[20]
  Kd: 6.17 nM
[21]
  Kd: 20.8 nM
[22]
  Kd: 9.71 nM
[23]
  Kd: 8.26 nM
[24]
  Kd: 7.52 nM
[25]
  Kd: 18.5 nM
[26]
  Kd: 7.14 nM
[27]
  Kd: 8 nM
[2]
  inhibition: 15%
[28]
  required for 50% inhibition: 3.9 ng

## CN1CCCC1c1cccnc1N (stereo not drawn) [2-aminonicotine]
[1]; [29]
  Nanograms required for 50% inhibition: 1,700 Nanograms
[2]; [30]
  Nanograms required for 50% inhibition: 14.0 Nanograms

## CCN1CCCC1c1cccnc1 (stereo not drawn) [N-ethylnornicotine]
[1]; at the 1,000 ng level
  inhibition (per cent in brackets): 44%
[1]; [29]
  Nanograms required for 50% inhibition: > 1,000 Nanograms
[2]; [30]
  Nanograms required for 50% inhibition: 5.4 Nanograms

## c1cncc(C2=NCCC2)c1 [myosmine]
[1]; [29]
  Nanograms required for 50% inhibition: 220 Nanograms
[2]; [31]
  inhibition (per cent in brackets): 13%
[2]; [30]
  Nanograms required for 50% inhibition: > 700 Nanograms

## CN1CCC[C@@H]1c1cccnc1 [(R)-(+)-nicotine]
[1]
  Nanograms required for 50% inhibition: 320 Nanograms
[2]
  Nanograms required for 50% inhibition: 6.4 Nanograms
  times more required for 50% inhibition than (S)-(-)-nicotine: Twenty-five

## O=C(O)CCC(=O)c1cccnc1 [gamma-(3-pyridyl-gamma-oxobutyric acid]
[1]; [29]
  Nanograms required for 50% inhibition: 410 Nanograms
[2]; [30]
  Nanograms required for 50% inhibition: 1,920 Nanograms

## O=NN1CCCC1c1cccnc1 (stereo not drawn) [N'-nitrosonornicotine]
[1]; [29]
  Nanograms required for 50% inhibition: 6.5 Nanograms
[2]; [31]
  inhibition (per cent in brackets): 31%
[2]; [30]
  Nanograms required for 50% inhibition: > 700 Nanograms

## c1cncc([C@@H]2CCCN2)c1 [(-)-nornicotine]
[1]
  Nanograms required for 50% inhibition: 50.0 Nanograms
[2]
  Nanograms required for 50% inhibition: 95.0 Nanograms
